Experimental data taken from PMC2364081, “Antagonists of retinoic acid receptors (RARs) are potent growth inhibitors of prostate carcinoma cells” (British Journal of Cancer, 2001).

Key:
LNCaP ITS+ cells = test: Plate colony formation (clonal proliferation) assay, serum-free (ITS+)-grown LNCaP; type: cell-based, human
Excerpt: (§1) Prostate cancer is one of the most common cancers in European and American males and has a high mortality rate (Landis et al, 1998; Rosenthal, 1998). Early disease is managed conservatively in Europe although in selected patients surgery is curative. In advanced disease, androgen ablation can produce symptomatic improvement, but the tumour often re-emerges in an androgen- independent and incurable form. One proposed treatment for androgen-independent prostate carcinoma is differentiation ther- apy, in which agents such as all-trans-retinoic acid (ATRA), 9-cis- retinoic acid and 1, 25-dihydroxyvitamin D3 (D3 ) are used to induce growth arrest, differentiation and sometimes apoptosis of the tumour cells (Liang et al, 1999; de Vos et al, 1997; Skowronski et al, 1994; Hedlund et al, 1997). ATRA and synthetic analogues exert their biological effects by binding to two families of retinoid receptors, […]. These are ligand-dependent transcription factors of the steroid/thyroid hormone nuclear receptor superfamily (Chambon 1994; Boehm et al, 1995). Activated RARs bind to retinoic acid-responsive elements (RAREs) in the promoters of genes and thus regulate gene expression. They also antagonize the activity of the tran- scription factor AP1 and thereby down-regulate the expression of some AP1-activated genes (Nagpal et al, 1995). One approach to unravelling the contributions of RAR sub-types to these actions has been the development of synthetic retinoids with selective activities at individual RARs and RXRs. For example, the diaryl- acetylenic retinoids allow separation of transactivation and AP1 antagonism functions at RAR (Nagpal et al, 1995). Recently, compounds that are selective for particular RAR sub-types have been synthesized: these include both agonists and antagonists (Chandraratna, 1995; Teng et al, 1999; Johnson et al, 1999). The functional selectivity of these compounds may open the way to achieving differentiation or apoptosis of tumour cells with minimal systemic side effects (Chandraratna, 1995). Cell lines that are commonly used in the evaluation of investiga- tional agents for prostate cancer include LNCaP, DU-145 and PC- 3. […] These lines are relatively insensitive to growth inhibition and induction of apoptosis by ATRA and by synthetic agonists. […] Fenretinide (4HPR) induces apoptosis of LNCaP and of PC-3 cells at 1-5 M and 25 µM, respectively (Pienta et al, 1993; Heish and Wu, 1997). Pfahl and colleagues examined the growth inhibitory effects of a panel of receptor-selective retinoids against DU145 and PC-3 cells and achieved complete growth inhibition and induction of apoptosis between 1 M and 10 M (Lu et al, 1999). […] Antagonists of retinoic acid receptors (RARs) are potent growth inhibitors of prostate carcinoma cells LA Hammond1 , CH Van Krinks2 , J Durham2 , SE Tomkins2 , RD Burnett3 , EL Jones1 , RAS Chandraratna3 and G Brown2 Divisions of 1 Cancer Studies and of 2 Immunity and Infection, University of Birmingham Medical School, Edgbaston, Birmingham B15 2TT, UK and 3 Retinoid Research, Allergan Inc., Irvine, California, USA Summary Novel synthetic antagonists of retinoic acid receptors (RARs) have been developed. To avoid interference by serum retinoids when testing these compounds, we established serum-free grown sub-lines (>3 years) of the prostate carcinoma lines LNCaP, PC3 and DU145. […] A component(s) of serum and of LNCaP-conditioned medium diminishes the activity of antagonists: this factor is not the most likely candidates IGF-1 and EGF. In vitro studies of RAR antagonists together with data from RAR-null mice lead to the hypothesis that RAR-regulated gene transcription is necessary for the survival and maintenance of prostate epithelium. […]

PC-3 and DU-145 cells = test system: PC-3 and DU-145 cells; parameters: method as in Lu et al, 1997 and 1999; dose or concentration left out as unconfirmed; conditions: ref Lu et al, 1997 and 1999; cited from earlier work
[1] = test system: LNCaP, PC3 and DU145 cells; test: Plate colony formation assay, stated over the three serum-free grown lines; type: cell-based, human; conditions: 100 nM, three cell lines, ITS+ and FBS cells
Excerpt: as §1

LNCaP cells = conditions: ref Gao et al, 1999; cited from earlier work
FBS-grown DU145 cells = test: Plate colony formation assay, FBS-grown DU145; type: cell-based, human; parameters: dose or concentration left out as unconfirmed; conditions: ATRA
Excerpt: Prostate cancer is one of the most common cancers in European and American males and has a high mortality rate (Landis et al, 1998; Rosenthal, 1998). Early disease is managed conservatively in Europe although in selected patients surgery is curative. In advanced disease, androgen ablation can produce symptomatic improvement, but the tumour often re-emerges in an androgen- independent and incurable form. One proposed treatment for androgen-independent prostate carcinoma is differentiation ther- apy, in which agents such as all-trans-retinoic acid (ATRA), 9-cis- retinoic acid and 1, 25-dihydroxyvitamin D3 (D3 ) are used to induce growth arrest, differentiation and sometimes apoptosis of the tumour cells (Liang et al, 1999; de Vos et al, 1997; Skowronski et al, 1994; Hedlund et al, 1997). ATRA and synthetic analogues exert their biological effects by binding to two families of retinoid receptors, […]. These are ligand-dependent transcription factors of the steroid/thyroid hormone nuclear receptor superfamily (Chambon 1994; Boehm et al, 1995). Activated RARs bind to retinoic acid-responsive elements (RAREs) in the promoters of genes and thus regulate gene expression. They also antagonize the activity of the tran- scription factor AP1 and thereby down-regulate the expression of some AP1-activated genes (Nagpal et al, 1995). […]

## C/C(=C\c1ccc(C(=O)O)cc1)c1ccc2c(c1)C(C)(C)CCC2(C)C [TTNPB, reference compound]
LNCaP ITS+ cells; TTNPB alone at 10 -6 M
  inhibition of colony formation: > 90%
LNCaP ITS+ cells; TTNPB alone at 10 -7 M
  inhibition of colony formation: ~ 10%

## CC1=C(/C=C/C(C)=C/C=C/C(C)=C/C(=O)O)C(C)(C)CCC1 [ATRA, all-trans retinoic acid]
PC-3 and DU-145 cells
  growth inhibition and apoptosis: neither inhibits the growth nor induces apoptosis
[1]
  effect on colony formation: little effect
LNCaP cells
  concentration inducing apoptosis: 2 µM
FBS-grown DU145 cells
  reduction in colony formation: < 1%
